Results reported in patent US10144929B2, “Polypeptide inhibitors of Smad3 polypeptide activities” (Mayo Foundation for Medical Education and Research, priority 2016, dated 2018).

System: adenovirus-TGFβ models of pulmonary fibrosis
Test: Adenovirus-TGFβ model of pulmonary fibrosis
Format: in vivo, Mice
Conditions: 1 mg/kg daily from day 21
Experimental: FIGS. 13A-C. Mice were infected with 1×10^8 pfu adenovirus particles expressing control (GFP) or active TGFβ by tracheal instillation. On day 21, all animals began daily treatment with either vehicle (methocel/saline) or 1 mg/kg of the indicated TAT polypeptide. (A) On days 21 and 35, peripheral blood oxygen was determined. (B and C) Mice were sacrificed on day 39 and processed for lung hydroxyproline content (B) or qPCR expression of the indicated genes (C) (CTGF, connective tissue growth factor; α-SMA, alpha smooth muscle actin; Col Iα1, collagen Iα1). For panels A-C, data reflect mean+/−SEM of n=8 and n=16 for adenovirus-GFP and adenovirus-TGFβ, respectively. *P<0.05, **P<0.001, ***P<0.0005.
Mice were infected with 1×10^8 pfu adenovirus particles expressing control (GFP) or active TGFβ by tracheal instillation. On day 21, all animals began daily treatment with either vehicle (methocel/saline) or 1 mg/kg of the indicated TAT polypeptide. On days 21 and 35, peripheral blood oxygen was determined. Mice were sacrificed on day 39 and processed for lung hydroxyproline content or qPCR expression of CTGF (connective tissue growth factor), α-SMA (alpha smooth muscle actin), and Col Iα1 (collagen Iα1).

Q: With “TAT-SH3-2: TAT-SNX9(SH3) fusion polypeptide having SNX9 amino acids 21-51 (31 mer) (TVNEGEIITITNPDVGGGWLEGRNIKGERGL; left off: small tags and cut ends)” as the substance, how does the “lung function (peripheral blood oxygen)” value read?
A: stabilized lung function
